Test results published in patent US20220315572A1, “SUBSTITUTED CYANOPYRROLIDINES WITH ACTIVITY AS USP30 INHIBITORS” (MISSION THERAPEUTICS LIMITED, priority 2019, published 2022).

Assays:
UUO injured kidneys = assay: Unilateral ureteral obstructive kidney disease model (UUO); assay type: in vivo, C57BL/6 mice; conditions: 10 days
Excerpt: (f) The unilateral ureteral obstructive kidney disease model (UUO). [Chevalier et al, 2009, Kidney Int 75(11): 1145-1152] UUO causes renal injury characterised by tubular cell injury, interstitial inflammation and fibrosis. It serves as a model of irreversible post-renal acute kidney injury (AKI). Experimental UUO has illustrated the molecular mechanisms of apoptosis, inflammation and fibrosis, all of which are key processes in renal injury, regardless of the primary insult. Consequently, the UUO model provides investigators information beyond obstruction. Example 1 was assessed in the UUO model to determine the ability of the compound to attenuate progressive tubulointerstitial fibrosis and chronic kidney disease (CKD). On day 1 of the study, adult C57BL/6 mice were dosed by oral gavage according to one of the following dosing regimens; Vehicle or 5 mg/kg Example 1 BID. Two hours post dosing on day 1 study mice underwent surgery to ligate the left ureter at two points. Successful UUO surgery was later confirmed by observation of dilation of renal pelvis due to hydronephrosis. The animals were dosed according to their prescribed regimen for 10 days at which point kidneys were harvested, or histopathology assessment and for protein/RNA assessment. […]

[1] = test system: P-glycoprotein (MDR1), human; assay: MDR1-MDCK flux assay; assay type: in vitro ADME, Canine; conditions: dog
Excerpt: The treatment of CNS disorders, including Alzheimer's disease, Parkinson's disease, and other disorders described herein, requires drug molecules to target the brain, which requires adequate penetration of the blood brain barrier. […] The probability that a compound can cross the blood brain barrier may be measured by an in vitro flux assay utilizing a MDR1-MDCK cell monolayer (Madin-Darby Canine Kidney cells transfected with MDR-1 resulting in overexpression of the human efflux transporter P-glycoprotein). Additionally, exposure may also be measured directly in brain and plasma using in vivo animal models.
MDR1-MDCK (Madin-Darby Canine Kidney cell monolayer) (in vitro) flux assay.

USP30 = target: T1, USP30 (Mus musculus, UniProt Q3UN04); assay: USP30 kidney tissue target engagement assay (TE ex vivo); assay type: in vivo; conditions: Mouse kidney 10 mg/kg PO
T1 construct: brain or kidney tissue samples from compound-dosed animals; from tissue; host or cells: kidney
T1 sequence (Q3UN04 1-517): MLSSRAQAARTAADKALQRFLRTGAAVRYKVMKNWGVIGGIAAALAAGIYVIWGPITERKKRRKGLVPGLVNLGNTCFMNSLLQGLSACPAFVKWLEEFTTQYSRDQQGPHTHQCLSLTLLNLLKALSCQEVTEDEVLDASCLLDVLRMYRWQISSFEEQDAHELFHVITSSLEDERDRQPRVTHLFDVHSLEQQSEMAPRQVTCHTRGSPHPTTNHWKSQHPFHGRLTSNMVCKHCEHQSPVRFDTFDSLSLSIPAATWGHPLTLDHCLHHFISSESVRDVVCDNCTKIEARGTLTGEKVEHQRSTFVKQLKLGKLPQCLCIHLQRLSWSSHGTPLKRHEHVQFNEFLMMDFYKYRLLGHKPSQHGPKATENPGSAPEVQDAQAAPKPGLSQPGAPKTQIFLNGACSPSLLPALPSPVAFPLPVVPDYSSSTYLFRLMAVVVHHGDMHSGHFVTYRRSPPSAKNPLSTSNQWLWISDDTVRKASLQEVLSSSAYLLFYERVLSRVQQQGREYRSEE
Experimental: 50 to 100 mg of tissue was homogenised in 3× volume of lysis buffer (50 mM Tris, pH 7.5, 50 mM NaCl, 0.1% NP-40/Igepal CA-630, 0.5% CHAPS, 2 mM MgCl2, 5 mM beta-mercaptoethanol, cOmplete mini tablets EDTA free (Roche), PhosStop tablets (Roche)) using a Retch Mixer Mill (MM400). Lysate containing 60 μg protein was incubated with a final conc of 6 μM of HA-Ahx-Ahx-Ub-VME probe for 15 mins at room temperature. The reaction was stopped by addition of 5×SDS sample loading buffer and proteins separated by SDS-PAGE and western blotting. USP30 was detected using an anti-USP30 Sheep S746D antibody (MRC PPU Reagents and Services) and a rabbit anti sheep secondary IgG (H+L) horseradish peroxidase conjugated (Thermo #31480) and visualised using ECL reagent (GE #RPN2109) on a GE LAS4000 imager. Target engagement was measured by quantitation of the bands corresponding to USP30 and USP30 bound to the Ub-VME probe and expression of this proportion compared to vehicle treated control.
TE ex vivo: USP30 kidney tissue target engagement assay.

Hepatocyte Cl mouse = assay type: in vitro ADME; conditions: mouse hepatocytes
Experimental: Hep Cl mouse: in vitro hepatocyte clearance in mouse cells.
(§1) Clu: in vitro clearance. Clu as defined here is the scaled clearance, in turn calculated from the intrinsic clearance. The intrinsic clearance is the predicted clearance due to hepatic metabolic reactions, determined from incubation of a compound in a hepatocyte preparation.

Hepatocyte Cl human = assay type: in vitro ADME; conditions: human hepatocytes
Experimental: Hep Cl human: in vitro hepatocyte clearance in human cells.
as §1

[2] = test system: Salmonella typhimurium strains TA98, TA100, TA1535 and TA97a and the Escherichia Coli strain WP2 uvrA pKM101; assay: Bacterial reverse mutation assay (Ames); conditions: up to 100 μg/well (equivalent to 5000 μg/plate), with and without metabolic activation
Experimental: The bacterial reverse mutation assay (Ames Test) may be used to evaluate the mutagenic properties of compounds of the invention, commonly by using the bacterial strain Salmonella typhimurium, which is mutant for the biosynthesis of the amino acid histidine.
Example 1 was assessed in the bacterial reverse mutation assay (Ames) and in vitro micronucleus assay. All in vitro tests were conducted with and without exogenous metabolic activation using concentrations up to those limited by cytotoxicity or insolubility.

Compound: C[C@@H]1C[C@@H](NC(=O)c2nnc(-c3cccc(C#N)c3)o2)CN1C#N [Example 1, N-((3R,5R)-1-Cyano-5-methylpyrrolidin-3-yl)-5-(3-cyanophenyl)-1,3,4-oxadiazole-2-carboxamide]
- α-SMA levels in UUO injured kidneys (UUO injured kidneys; 5 mg/kg oral BID, compared to vehicle treated controls): statistically reduced α-SMA levels
- collagen deposition, picrosirius red staining in ligated kidneys (UUO injured kidneys; 5 mg/kg p.o. BID): statistically reduced collagen deposition
- efflux ratio [1]: 81
- Papp A→B ([1]; A-B): 0.9 ×10⁻⁶ cm/s
- TE ex vivo TE % occupancy (USP30; 1 h post-dose): 94%
- TE ex vivo TE % occupancy (USP30; 4 h post-dose): 89%
- TE ex vivo TE % occupancy (USP30; 8 h post-dose): 79%
- TE ex vivo TE % occupancy (USP30; 12 h post-dose): 8%
- Hepatocyte Cl mouse scaled Clu (Hepatocyte Cl mouse): 45 mL/min/kg
- Hepatocyte Cl human scaled Clu (Hepatocyte Cl human): 6 mL/min/kg
- induction of mutations, reverse mutation assay [2]: did not induce mutations
